Data published in patent US20260023070A1, “OPTOGENETIC ALPHA-SYNUCLEIN AGGREGATION SYSTEM-BASED COMPOUND SCREENING PLATFORM IN PD-hiPSC-mDA NEURONS” (The Johns Hopkins University, priority 2022, published 2026).

How the values were obtained:
[1] = system: tau PFF treated mouse cortical neurons; assay: tau PFF treated mouse cortical neurons, p-Tau western blot; assay type: cell-based
Procedure: It was tested whether the BAG956 compound can be beneficial in other proteinopathy models. The BAG and CDC compounds were used on the tau PFF treated mouse […] neurons (FIGS. 15A-15D) and measured expression levels with three different phosphorylated-Tau (p-Tau) antibodies.

[2] = system: mouse primary neurons treated with α-syn PFF; assay: α-syn PFF model in mouse primary neurons (TX-insoluble pathologic α-syn); assay type: cell-based
Procedure: To validate the effects of these two compounds on the OASIS-independent model, α-syn PFF were treated with mouse primary neurons and non-OASIS-human PD hiPSC-derived mDA neurons with CDC 021 and BAG 956.

opto-α-syn SH-SY5Y cells = assay: OASIS-based high-content imaging assay of light-induced α-syn aggregation (5G4 staining, Aggregates Induction Score); assay type: cell-based, human
Procedure: The opto-α-syn expressing SH-SY5Y cells were seeded in 96-well black flat bottom imaging microplates (Falcon) at 30,000 cells per well in 100 μL of complete media using E1-ClipTip electronic multichannel pipette (Thermo Fisher Scientific) and incubated in 37° C. and 5% CO2 humidified incubator. After 18 h of incubation, 10 μL of 10 μM compounds (column 2 to 10) or 1% DMSO (column 1 and 12) were added (final concentration of DMSO is 0.1%). In order to induce aggregations, the plates were illuminated with blue light (26 μW/mm^2) on customized blue light illumination 96-well plates for 2 h. Afterward, cells were fixed in 4% paraformaldehyde (PFA) for 15 min and stained with the aggregated-α-syn antibody (5G4) after permeabilization with 0.1% Triton X-100/0.5% BSA/PBS solution. […] To analyze images, the automated aggregation quantification algorithm and cell counting algorithm in the form of macro are developed using ImageJ software. Briefly, the algorithm includes the inversion, subtracting background, threshold selection, analyzing particles with ranged size and circularity. The Aggregates Induction Score (AIS) is calculated using, the following equation: […]
where N^agg is the number of aggregates, ^Ntotal is the number of total cells. The AIS in each well is normalized by the AIS in positive control which is set as 1.0. […] The hit selection strategy was based on calculated AIS; hits were defined as AIS<0.5. […] Two independent experiments were performed, and total 10 images per well are analyzed to calculate AIS.
As illustrated in FIGS. 8A-8E, high-content imaging screening with the optogenetic α-syn aggregation system was performed, following the schematic representation of the process of high-content imaging (HCI) screening with optogenetics-assisted method of alpha-synuclein aggregation induction system (OASIS) (FIG. 8A). SH-SY5Y cells expressing opto-α-syn were in dark or exposed to blue light (26 μW/mm^2 at 470 nm, 1 Hz, 1 s) for 1.5 h under 96-well plate culture conditions, and then immunostained with 5G4 antibody. The equation of Aggregates Induction Score (AIS) (FIG. 8B) was used for the calculation of Z′-factor for HCI screening with OASIS (FIG. 8C). […] Arrow represents the degree of separation (Z′-factor) between light-illuminated and darkness controls. […] Detailed information of numbered compounds was described in Table 1. One-way ANOVA followed by Dunnett's post hoc test (n=10 or 20, 5 or 10 images each from two independent experiments). *P<0.05, **P<0.01, ***P<0.001, ****P<0.0001.
As illustrated in FIGS. 9A-9B, high-content imaging screening with the optogenetic α-syn aggregation system was performed. The measurement of 5G4^+ aggregates in opto-mock or opto-α-syn SH-SY5Y neuronal cells was assessed. Cells were in dark or exposed to blue light (26 μW/mm^2 at 470 nm, 1 Hz, 1 s) for 1.5 h, and then immunostained with 5G4 antibody. […] Images were converted to grayscale, and a threshold was adjusted to exclude the background based on the size of particles. Once the value of threshold was determined, all the images were applied with the fixed threshold, and then the number of aggregates was measured (FIG. 9A). Number of DAPI from the original images were counted (FIG. 9B). Representative images of opto-α-syn SH-SY5Y neuronal cells treated with 19 compounds under 24-well plate culture conditions were imaged. SH-SY5Y cells expressing opto-α-syn were in dark or exposed to blue light (34 μW/mm^2 at 470 nm, 1 Hz, 0.5 s) for 1.5 h, and then immunostained with 5G4 antibody.

[3] = system: PI3K-PDK1/AKT/mTOR signaling pathway; assay: PI3K/PDK1 downstream target phosphorylation in α-syn PFF-treated PD hiPSC-derived dopaminergic neurons; assay type: cell-based, human
Text: (§1) Since PI3K-PDK1/AKT/mTOR signaling pathway plays a critical role in regulation of autophagy, it was investigated the effects of BAG 956 treatments on PFF models. […] Taken together, BAG 956 may act as an autophagy-enhancing drug through inhibition of the PI3K-PDK1/AKT/mTOR signaling pathway (FIG. 18I).

[4] = system: PI3K-PDK1/AKT/mTOR signaling pathway; assay: PI3K/PDK1 downstream target phosphorylation in α-syn PFF-treated mouse primary neurons; assay type: cell-based
Text: as §1

tau-PFF injected mice = assay: tau-PFF injected mice, AT8 immunofluorescence in dentate gyrus; assay type: in vivo
Procedure: To find in vivo efficacy in a pilot exponential set and set a drug dosage, an in vivo experiment with the tau-PFF injected mice with DMSO or BAG treatment ([…]) was performed. Intraperitoneal injection of different concentrations (0, 5, 10 mg/kg) of BAG was given for one month, once every two days. Immunofluorescence staining results of AT8 in the dentate gyrus of C57bl/6j mice (3 per group) after injection of K18-tau PFF (5 μg/kg) into the hippocampus for two months was performed (data not shown).

Cc1nc2cnc3ccc(C#Cc4cccnc4)cc3c2n1-c1ccc(C(C)(C)C#N)cc1 [BAG 956]
all three forms of p-Tau (AT8, AT180, Tau-217) [1]: significantly downregulated
pathologic α-syn in the Triton X-100 (TX)-insoluble fraction [2]: significantly reduced
AIS compared to blue light-illuminated DMSO control (opto-α-syn SH-SY5Y cells; two independent experiments, 24-well culture conditions, blue light stimulation): significant decrease
AIS, aggregates induction score (opto-α-syn SH-SY5Y cells; validation of 19 hits, 24-well plates, blue light, AIS normalized to positive control (blue light, DMSO) set as 1.0): 0.34
Phosphorylation of PDK1 downstream targets PI3K, AKT, S6K, and mTOR [3]: significantly reduced
Phosphorylation of PDK1 downstream targets PI3K, AKT, S6K, and mTOR [4]: significantly reduced
toxicity (tau-PFF injected mice; 10 μg/kg dosage as printed): without noticeable toxicity
levels of the AT8+ phosphorylated-tau (tau-PFF injected mice; intraperitoneal, once every two days for one month, 5 and 10 mg/kg): significantly decreased
